From US20080081781A1, “Methods and compositions for the treatment of metabolic syndrome” (priority 2004, published 2008) come the findings set out here.

As usually defined, the Vd is a proportionality between amount in the body and measured concentration, not a real space. A lower Vd goes with confinement near the circulation.

Counter-ions that a name gives are not always drawn. Like-named read-outs stand apart in the source and are kept apart here.

Data set [1] is described as follows: Tissue distribution of 3H-berberine in mice. Format: in vivo, mouse. The conditions noted are these: tail vein 135 LBq/10 g, 5 minutes to 2 hours. How it is done: Tissue radiation emission was measured 5 minutes to 2 hours after administration with the distribution of the berberine concentrations from highest to lowest being: lung>liver>kidney>spleen>heart>intestine>stomach>brain.

Data set [2] can be described thus: Pharmacokinetics of 3H-berberine in rabbits, intravenous and intravenous drip. As for the experimental part: 0.1 ml of blood was removed at various times and radiation emissions were measured.
Data set [3] in a line: Excretion of berberine in rats (urine, fecal matter, gall bladder secretions). It is filed as in vivo, rat. The conditions noted are these: rats, oral 3H-berberine, forty-eight hours. How it is done:
In a final series of animal model studies, rats were orally administered 3H-berberine. Forty-eight hours after administration, excretions were tested for the presence of berberine. 2.7% of the oral dose was measured in the urine and 86% of the oral dose was measured in the fecal matter.
Rats received intravenous berberine (9.25 MBq/kg). Six days accumulation of rat urine and fecal secretions were measured for the presence of berberine. 73% of the intravenous dose of the berberine was found in the accumulated urine in both metabolized and unmetabolized forms. 10.9% of the intravenous dose was found in the fecal matter.
Three rats were given berberine (9.25 MBq/kg) intravenously. After 24 hours, gall bladder secretions were collected and evaluated for the presence of berberine. There was 10.1±0.9% (x±SD, n=3) of berberine in the gall bladder secretions.

For data set [4] the following is noted: Distill Water; amount of solute 10 mg.
The test system of the next data set is LDLR mRNA. Kind of data set: Kinase inhibitors on berberine-induced LDLR mRNA in HepG2 cells (RT-PCR). The conditions noted are these: HepG2, inhibitor 1 hour before 7.5 μg berberine 8 hours; calphostin C 0.2 μM. It is filed as cell-based, human. As for the experimental part:
(§1) To explore the pathway responsible for the berberine-induced InsR gene transcription, different kinase inhibitors were used, including the MEK1-ERK inhibitor U0126, the p38 kinase inhibitor SB203580, the c-Jun N-terminal kinase inhibitor curcumin, the PI-3 kinase inhibitor wortmannin, and the PKC inhibitor calphostin C.
(§2) HepG2 cells were pretreated with each of the inhibitors 1 hour prior to treatment with 7.5 μg of berberine for 8 hours. Total RNA was then isolated and the relative amount of InsR and LDLR mRNA was measured by quantitative RT-PCR as described in Example XVII. It was determined that the activity of berberine on InsR gene transcription was most sensitive to the PKC inhibitor calphostin C.

In the next data set the test system is InsR mRNA. Kind of data set: Kinase inhibitors on berberine-induced InsR gene transcription in HepG2 cells (RT-PCR). It is filed as cell-based, human. The note with it: HepG2, inhibitor 1 hour before 7.5 μg berberine 8 hours; calphostin C 0.2 μM. As for the experimental part:
as §1, §2

A further data set concerns hyperlipidemia patients. The note with it: three months.
The next data set deals with rat model subjects. Kind of data set: Combinatorial anti-hyperlipidemia efficacy of berberine and lovastatin in rats (Table 9). It is filed as in vivo.
Data set [5] deals with patients with type 2 diabetes. Format: in vivo, human. The note with it: patients with type 2 diabetes, Mean ± SE. An excerpt:
Ninety-seven hyperglycemic patients (54 males and 43 females) with fasting blood glucose>7 mmol/L and post-prandial blood glucose>11.1 mmol/L were enrolled in a study at the Nanjing First Hospital in Nanjing, China. The patients were asked to end any current treatments for hyperglycemia at least 2 weeks prior to commencement of the study.
Fifty of the patients (male/female, 27/23; age 57±8y) were randomly assigned to be given 0.5 gram twice a day (1g/day total) of berberine (Nanjing Second Pharmaceutics, Inc., Nanjing, China), orally for 2 months. Out of these 50 patients, 25 had hyperlipidemia, 9 had hypertension and 2 had cardiovascular disease. Twenty-six patients (male/female, 15/11; age 56±11 y) were given 1.5 grams of metformin (Double-Crane Pharmaceutical, Inc., Beijing, China) per day, orally for two months. Of these twenty-six patients, 11 had hyperlipidemia, and four had hypertension. The remaining twenty-one patients (male/female, 11/10, age 49±10 y) were given 4 mg per day of rosiglitazone (Glaxowelcome, UK), orally for two months. Of these 21 patients, ten had hyperlipidemia and four had hypertension. Metformin and rosiglitazone served as reference controls as they are standard treatments for type 2 diabetes.
Blood samples were taken prior to the commencement of therapy and after completion of the therapy.

Data set [6] deals with high fat high cholesterol (HFHC) diet rats. Description: Combination treatment with berberine and simvastatin in HFHC diet rats (Table 8). Format: in vivo, rat. The conditions noted are these: oral, after 25 days, daily dose berberine 100 mg/kg, simvastatin 25 mg/kg, combination 100 + 25, average ± standard error. How it is done: Rats were fed a high fat high cholesterol (HFHC) diet for 10 days, and then divided into groups of seven. The rats were then administered berberine or simvastatin, or a combination of berberine and simvastatin orally for 25 days. After 25 days, serum cholesterol, triglyceride and LDL-c levels were measured. […] The combination of simvastatin, and berberine lowered the cholesterol, triglyceride and LDL-c levels further than either alone.

In the next data set the test system is InsR gene promoter. Description: InsR promoter activity, pGL3-1.5kIRP transfected HepG2 cells. Format: cell-based, human. The conditions noted are these: pGL3-1.5kIRP transfected HepG2; calphostin C 0.2 μM, berberine 5 μg/ml. As for the experimental part:
The InsR promoter luciferase gene fusion plasmid (pGL3-1.5kIRP) was kindly provided by Dr. Araki E of the Graduate School of Medical Sciences, Kumamoto University, Honjo, Kumamoto, Japan.
After overnight incubation, the cells were treated with DMSO as the solvent control or with 0, 1, 2.5, 5, 7.5 and 10 μg/ml berberine for 8 h. Cell lysates were prepared and luciferase activities were measured using the Luciferase Reporter Gene Assay (Roche Applied Science). The experiment was repeated 4 times.

The next data set concerns LDLR promoter. Description: LDLR promoter activity, pLDLR234Luc reporter in HepG2 cells. The conditions noted are these: pLDLR234Luc HepG2, LPDS or LPDS and cholesterol medium, 8 hour treatment. Format: cell-based, human. The source says: HepG2 cells were transfected with the reporter construct pLDLR234Luc, which contains the SRE- I motif and the sterol-independent regulatory element that mediates the cytokine oncostatin M-induced transcription of the LDLR gene.

Where [7] appears, read: 0.5 g twice a day, all treated patients (n=63).
[8] abbreviates: only participants neither on drugs nor special diets.
The mark [9] stands for this setting: high fat diet rats treated for 15 days, berberine 80 mg/kg/day, lovastatin 10 mg/kg/day.
Setting [10] is: high fat diet rats, Day 0 (untreated rats, baseline).
Where [11] appears, read: After treatment (2 months), oral: berberine 1 g/day, metformin 1.5 g/day, rosiglitazone 4 mg/day.

Experimental for hyperlipidemia patients: After three months, fasting serum concentrations of cholesterol, triglycerides, HDL and LDL were measured using standard blood lipid tests.

On to 3H-berberine, for which, in data set [1], the “distribution of concentrations in tissues, highest to lowest” value was “lung>liver>kidney>spleen>heart>intestine>stomach>brain”. Also, the volume of distribution (Vd) in [2] (5 rabbits, intravenously 25 MBq/kg) is 20 ± 3 L/kg. For the same molecule, the Vd in [2] (four rabbits, intravenous drip 46.25 Mbq/kg) worked out at 22.1 ± 1.7 L/kg. For the same molecule, in [3], the “oral dose measured in the fecal matter” value stood at 86% and the “oral dose measured in the urine” value came out at 2.7%.
Turning to `CC(=O)[O-].COc1ccc2cc3[n+](cc2c1OC)CCc1cc2c(cc1-3)OCO2` [3. Acetate], the “Amount of Solvent” value in data set [4] is reported as 9.0.
For `CC(O)C(=O)[O-].COc1ccc2cc3[n+](cc2c1OC)CCc1cc2c(cc1-3)OCO2` [4. Lactate], the “Amount of Solvent” value in data set [4] was determined as 6.0.
With `COc1ccc2cc3[n+](cc2c1OC)CCc1cc2c(cc1-3)OCO2.CS(=O)(=O)[O-]` [6. Methanesulfonate], in data set [4], the “Amount of Solvent” value stood at 1.5.
Still for that read-out and setting: with `COc1ccc2cc3[n+](cc2c1OC)CCc1cc2c(cc1-3)OCO2.O=S(=O)([O-])O` [7. Hydrosulfate] the figure was 1.5.
For `COc1ccc2cc3[n+](cc2c1OC)CCc1cc2c(cc1-3)OCO2.COc1ccc2cc3[n+](cc2c1OC)CCc1cc2c(cc1-3)OCO2.O=S(=O)([O-])[O-]` [8. Sulfate], the “Amount of Solvent” value in data set [4] came out at 0.5.
As to `COc1ccc2cc3[n+](cc2c1OC)CCc1cc2c(cc1-3)OCO2.O=C([O-])c1ccccc1` [13. Benzoate], the “Amount of Solvent” value in data set [4] is 7.0.
As for `COc1ccc2cc3[n+](cc2c1OC)CCc1cc2c(cc1-3)OCO2.Cc1ccc(S(=O)(=O)[O-])cc1` [15. Toluenesulfonate], the “Amount of Solvent” value in data set [4] is recorded as 11.0.
In the case of `COc1ccc2cc3[n+](cc2c1OC)CCc1cc2c(cc1-3)OCO2.O=C([O-])C(F)(F)F` [16. Trifluoroacetate], in [4], the “Amount of Solvent” value was 7.5.
For the molecule `N#CC(=C(/N)Sc1ccccc1N)/C(C#N)=C(\N)Sc1ccccc1N` [U0126], in the data set with LDLR mRNA, the “effect of inhibitor on berberine-increased level of LDLR mRNA” value was “completely abolished”. Besides, the “effect of inhibitor on the activity of berberine on InsR gene transcription” value in the data set with InsR mRNA is “did not effect”.
Consider `COc1ccc2cc3[n+](cc2c1OC)CCc1cc2c(cc1-3)OCO2` [berberine hydrochloride], for which, in the data set with hyperlipidemia patients (setting [7]), the “lowering of serum LDL” value is 20%, the “lowering of serum cholesterol” value came out at 18% and the “lowering of serum triglycerides” value is 28%. In addition, in the data set on hyperlipidemia patients (setting [8]), the “decrease of serum LDL” value came to 25%, the “decrease of serum cholesterol” value came to 29% and the “decrease of serum triglycerides” value is recorded as 35%.
Regarding `CC[C@H](C)C(=O)O[C@H]1C[C@@H](C)C=C2C=C[C@H](C)[C@H](CC[C@@H]3C[C@@H](O)CC(=O)O3)[C@H]21` [lovastatin, reference compound], in the data set with rat model subjects (setting [9]), the “Cholesterol Day 15” value came out at 2.7 mmol/L and the “LDL Day 15” value was found to be 1.62 mmol/L. Besides, in the data set on rat model subjects (setting [10]), the “Cholesterol Day 0” value is 3.6 mmol/L and the “LDL Day 0” value stood at 2.15 mmol/L.
In data set [5] (setting [11]), `CN(C)C(=N)N=C(N)N` [metformin, reference compound] came in with a HbA1c of 7.2 ± 0.3 % and a Triglyceride of 1.6 ± 0.1 mmol/L. In data set [5] (Before treatment (baseline)), the “FBG (fasting blood glucose)” value worked out at 10.9 ± 0.5 mmol/L, the HbA1c is on record as 9.4 ± 0.5% and the Triglyceride is 1.7 ± 0.2 mmol/L.
For `CN(CCOc1ccc(CC2SC(=O)NC2=O)cc1)c1ccccn1` (stereo not drawn) [rosiglitazone, reference compound] the same measures were 6.8 ± 0.3 %, 1.6 ± 0.1 mmol/L, 9.1 ± 0.8 mmol/L, 8.3 ± 0.4% and 1.9 ± 0.3 mmol/L.
As for `CCC(C)(C)C(=O)O[C@H]1C[C@@H](C)C=C2C=C[C@H](C)[C@H](CC[C@@H]3C[C@@H](O)CC(=O)O3)[C@H]21` [simvastatin, reference compound], in [6], the LDL-c turned out to be 1.4 ± 0.1 mmol/L, the “Total Cholesterol” value is 3.6 ± 0.4 mmol/L and the Triglyceride is 2.5 ± 0.3 mmol/L.
For the molecule Calphostin C, the “effect of inhibitor on berberine-increased level of LDLR mRNA” value in the data set with LDLR mRNA is “did not change”. Besides, in the data set on InsR gene promoter, the “effect of PKC inhibitor pre-treatment on berberine stimulation of InsR gene promoter” value is “diminished the ability of berberine to stimulate the InsR gene promoter”. Besides, in the data set with InsR mRNA, the “effect of inhibitor on the activity of berberine on InsR gene transcription” value was “completely eliminated”.

B1: oncostatin M: cytokine oncostatin M that induces transcription of the LDLR gene (protein, UniProt P13725 26-221, looked up)
Oncostatin-M: AAIGSCSKEYRVLLGQLQKQTDLMQDTSRLLDPYIRIQGLDVPKLREHCRERPGAFPSEETLRGLGRRGFLQTLNATLGCVLHRLADLEQRLPKAQDLERSGLNIEDLEKLQMARPNILGLRNNIYCMAQLLDNSDTAEPTKAGRGASQPPTPTPASDAFQRKLEGCRFLHGYHRFMHSVGRVFSKWGESPNRSRR
For the molecule B1, the LDLR promoter activity result in the data set on LDLR promoter was “strongly elevated”.
